This is an account of results in patent US6949553B2, “Aliphatic compounds, their synthesis method, and utilization of the same” (Maruha Corporation, priority 2001, dated 2005).

Molecules are shown by their SMILES.

What is called IC50 is the concentration that gives 50% inhibition.

Assay [1] concerns neutrophils and vascular endothelial cells. The experiment in a line: Pseudo-blood vessel in vitro inflammation model (TNFα, neutrophil migration through endothelial cell layer). The settings on record: 30, 3 or 0.3 μM, TNFα 50 ng/ml. In kind it is cell-based, bovine.
Experimental: A layer of bovine endothelial cells was adhered to the bottom surface of the membrane, and cultured for 80 minutes at 37° C. in 5% CO2. Then, a suspension of fluorescence-labeled neutrophils was added to the upper chamber of the transwell. Simultaneously, TNFα was suspended in the cell suspension in the upper chamber to an end concentration of 50, 25 or 17 ng/ml.
That is, in the above model, the phenomena that neutrophils pass from the upper chamber through the vascular endothelial cell layer into the lower chamber, and neutrophils adhere to the endothelial cell layer mimic a state where in response to TNFα within the blood vessel, neutrophils migrate from within the blood vessel to the site of inflammation.
In the same manner as described above, the number of neutrophils passing from the upper chamber through the vascular endothelial cell layer into the lower chamber, and the number of neutrophils adhering to the endothelial cell layer were measured. Based on these numbers, the neutrophil migration rate (%) was calculated. The neutrophil migration rate was expressed as the relative value (%) of the number of the migrating neutrophils in the drug treatment group with respect to the number of the migrating neutrophils in the negative control group (physiological saline).
The subject of assay [2] is platelets. The experiment in a line: Collagen-induced in vitro platelet aggregation (rabbit PRP, transmittance). In kind it is cell-based. The settings on record: Oryctolagus cuniculus; collagen 0.2 μg/ml, rabbit platelet rich plasma; read-out: 50% Inhibition Point for Platelet Aggregation, IC50. How it is done: Collagen-induced in vitro Platelet Aggregation
It was studied whether the compounds of the present invention would inhibit platelet aggregation induced by collagen.
These compounds were each diluted with physiological saline to end concentrations of 1×10^−7M, 3×10^−7M, 1×10^−6M, 3×10^−6M, 1×10^−5M, 3×10^−5M and 1×10^−4M.
Indomethacin was used as a positive control. Indomethacin was dissolved in methanol, and then diluted with physiological saline to end concentrations of 1×10^−6M, 3×10^−6M and 1×10^−5M.
Physiological saline was used as a negative control.
The tube was centrifuged at 900 rpm for 10 minutes at room temperature to separate the supernatant (PRP, platelet rich plasma fraction). The residue was further centrifuged for 15 minutes at 2,500 rpm to obtain the supernatant (PPP, platelet poor plasma fraction).
PPP (platelet poor plasma fraction) was placed in a cuvette, and the cuvette was mounted in a 37° C. incubator for PPP of an aggregometer (Hematracer 240 12ch, manufactured by MCM). Then, 200 μl of PRP (platelet rich plasma fraction) was added into a cuvette, and the cuvette was mounted in a reactor for PRP. With stirring by a magnetic stirrer, the transmittance of PPP was corrected to T650 nm=100%, and the transmittance of PRP was corrected to T650 nm=0%, by automatic adjustment for 30 seconds.
The study substance (20 μl) at a predetermined concentration was added into the cuvette and, 30 seconds later, 20 μl (end concentration 0.2 μg/ml) of collagen (produced by MCM) was added. Subsequent changes in the transmittance were recorded for 5 minutes. When the platelets are aggregated, the transmittance increases. When aggregation peaked, the transmittance T at maximum aggregation was compared with the transmittance T0 of the negative control, and the aggregation inhibition rate was expressed as percentage using the following equation: Aggregation inhibition rate=(1−T/T0)×100
From an aggregation inhibition curve obtained, a regression equation was derived by approximation of the linear type.

Assay [3] deals with platelets. The experiment in a line: Ex vivo platelet aggregation after intravenous administration. The assay is classed as in vivo, rat. Particulars: 0.1 mg/kg intravenous, blood 1 hour after administration, collagen 1 to 6 μg/ml. How it is done: The blood was withdrawn at three points in time, 10 minutes, 30 minutes and 1 hour after administration. Platelets were prepared from the blood samples taken, and they were used to study the aggregation rates when platelet aggregation was induced by 0.3 to 6 μg/ml of collagen. In a control group, the aggregation rates after administration of a solvent (physiological saline) were measured.
It was studied whether the compound of the present invention would suppress ex vivo platelet aggregation dose-dependently.
The blood was withdrawn 60 minutes after administration, and platelets were prepared from the blood. Platelet aggregation was induced by 4 to 7 μg/ml of collagen using the platelets.
The blood was withdrawn 1 hour after intravenous administration, and platelets were prepared from the blood. Platelet aggregation was induced by 1 to 6 μg/ml of collagen using the platelets.

Assay [4] relates to platelets. The experiment in a line: In vitro platelet aggregation by various inducers, rabbit platelets. In kind it is cell-based. Particulars: Oryctolagus cuniculus, Platelet; inducer collagen (0.1 to 1 μg/ml), rabbit platelets; read-out: 50% inhibition point, IC50, for in vitro platelet aggregation. The text has this: (§1) Next, the suppression of platelet aggregation by the compounds of the present invention was studied in the same manner as described above with the use of not only collagen, but also arachidonic acid, ADP, thrombin, serotonin, epinephrine and U46619 (pseudo-thromboxane A2 substance) as inducers.
(§2) As platelets, platelets prepared from rats and guinea pigs as well as rabbits were also used.
(§3) Collagen and ADP were purchased from MCM, and used in accordance with the method of preparation described in the manuals attached to the purchased products. Serotonin, epinephrine and thrombin were purchased from Sigma, and used as solutions in physiological saline for injection (Otsuka Pharmaceutical Factory). Arachidonic acid was purchased from Cayman, and dispersed in physiological saline for injection (Otsuka Pharmaceutical Factory) with the use of an immersion type ultrasonic oscillator (US150, NIPPON SEIKI, tip end diameter ca. 3.5 mm). U46619 (pseudo-thromboxane substance) was purchased from FUNAKOSHI, and dissolved in physiological saline for injection (Otsuka Pharmaceutical Factory) when used.
(§4) Collagen (0.1 to 1 μg/ml), arachidonic acid (1 mM), ADP (1 μM), thrombin (1 U/ml), serotonin (100 μM), epinephrine (100 to 200 μM), and U46619 (3 μM) were used.
(§5) Indomethacin was used as a positive control for measuring the suppression of platelet aggregation induced by collagen.

For assay [5], the system named is platelets. As to the kind of experiment: In vitro platelet aggregation by various inducers, rat platelets. The settings on record: inducer collagen (0.1 to 1 μg/ml), rat platelets, read-out: 50% inhibition point, IC50, for in vitro platelet aggregation. The assay is classed as cell-based.
Excerpt: as §1, §2, §3, §4, §5

The subject of assay [6] is platelets. The experiment in a line: In vitro platelet aggregation by various inducers, guinea pig platelets. In kind it is cell-based. Particulars: Cavia porcellus, inducer collagen (0.1 to 1 μg/ml), guinea pig platelets, read-out: 50% inhibition point, IC50, for in vitro platelet aggregation.
Excerpt: as §1, §2, §3, §4, §5

As to `CC/C=C\C/C=C\C/C=C\C/C=C\C/C=C\C/C=C\CCC(=O)NN1CCN(C)CC1` [Compound 1, (4Z,7Z,10Z,13Z,16Z,19Z)-N-(4-methylpiperazin-1-yl)docosahexaenoamide], the “neutrophil passage through vascular endothelial cell layer (in words)” value in assay [1] is “suppressed neutrophil passage dose-dependently”. Also, in the assay on platelets [2], the IC50 came to 7.9 µM. `CCCCCCCC(=O)NCCC1CCCN1C` (stereo not drawn) [Compound 3, N-[2-(1-methylpyrrolidin-2-yl)ethyl]caprylamide]: in the assay on platelets [2], the IC50 is 8.1 µM. `CCCCCCCCCCCCCC(=O)NCCC1CCCN1C` (stereo not drawn) [Compound 4, N-[2-(1-methylpyrrolidin-2-yl)ethyl]myristamide]: the IC50 with platelets [2] stood at 42 µM. In the case of `CCCCCCCC/C=C\CCCCCCCC(=O)NCCC1CCCN1C` (stereo not drawn) [Compound 5, 9Z-N-[2-(1-methylpyrrolidin-2-yl)ethyl]oleamide], the “ex vivo platelet aggregation (in words)” value in the assay on platelets [3] is listed as “suppress platelet aggregation”. In addition, the concentration for half-maximal inhibition (IC50) in the assay on platelets [2] came to 5.6 µM. With `CCCCC/C=C\C/C=C\CCCCCCCC(=O)NCCC1CCCN1C` (stereo not drawn) [Compound 6, (9Z,12Z)-N-[2-(1-methylpyrrolidin-2-yl)ethyl]linoleamide], the IC50 in the assay with platelets [2] turned out to be 2.1 µM. On the same count and under the same terms, as for `CC/C=C\C/C=C\C/C=C\CCCCCCCC(=O)NCCC1CCCN1C` (stereo not drawn) [Compound 7, (9Z,12Z,15Z)-N-[2-(1-methylpyrrolidin-2-yl)ethyl]linolenamide], the figure is 3.7 µM; as for `CC/C=C\C/C=C\C/C=C\C/C=C\C/C=C\CCCC(=O)NCCC1CCCN1C` (stereo not drawn) [Compound 8, (5Z,8Z,11Z,14Z,17Z)-N-[2-(1-methylpyrrolidin-2-yl)ethyl]eicosapentaenoamide], 3.7 µM; as for `CC/C=C\C/C=C\C/C=C\C/C=C\C/C=C\C/C=C\CCC(=O)NCC1CCCN1C` (stereo not drawn) [Compound 9, (4Z,7Z,10Z,13Z,16Z,19Z)-N-[(1-methylpyrrolidin-2-yl)methyl]docosahexaenoamide], 1.5 µM.

With `CC/C=C\C/C=C\C/C=C\C/C=C\C/C=C\C/C=C\CCC(=O)NCCCC1CCCN1C` (stereo not drawn) [Compound 11, (4Z,7Z,10Z,13Z,16Z,19Z)-N-[3-(1-methylpyrrolidin-2-yl)propyl]docosahexaenoamide], the IC50 in the assay on platelets [2] was 4.2 µM.

Take `COc1ccc2c(c1)c(CC(=O)O)c(C)n2C(=O)c1ccc(Cl)cc1` [Indomethacin, reference compound]: the IC50 in the assay on platelets [4] turned out to be 4 µM; with platelets [5], 18 µM; with platelets [6], 29 µM; with platelets [2], 5 µM.
